In one data set the test system is LC3-II and p62. As to the kind of experiment: Western blot of autophagy markers LC3-II and p62 in H9C2. It is filed as cell-based, Rat. As to conditions: H9C2, Baf A1 treatment alone. Here is the method:
H9C2 or NRVMs extracts were prepared by lysing in RIPA buffer (50 mM Tris pH 7.2, 500 mM NaCl, 1% Triton X-100, 1 mM EDTA, 100 mM sodium fluoride, 5 mM sodium metavanadate, 10 mM sodium pyrophosphate) and equal protein amounts were subjected to sodium dodecyl sulfate-polyacrylamide gel electrophoresis (SDS-PAGE) in 10-15% gels depending upon protein molecular weight. After electrophoresis, proteins were transferred to nitrocellulose membranes and incubated with the following antibodies: anti-GAPDH, anti-LC3B, anti-cleaved caspase 3, anti-p-p53 from Cell Signaling Technology, anti-p62 from Abnova, anti-Lamp1, anti-cathepsin D from Abcam. Proteins were detected by chemiluminescence with a Bio-Rad ChemiDoc XRS camera. Relative densities were quantified using the ImageLab 5.2.1 software (Bio-Rad). All data were normalized by internal controls.
On the technique in general: Immunoblotting shows a protein as a band on a membrane.

For data set [1], the system named is H9C2 cells. As to the kind of experiment: Autophagosomes/autolysosomes visualization (GFP-LC3, RFP-GFP-LC3) in H9C2. It is filed as cell-based, Rat. The method, then: Autophagosomes were visualized in GFP-LC3-transduced cells. Autophagic flux was evaluated in RFP-GFP-LC3-transduced cells. Representative images were taken with an epifluorescence microscope (DM600 microscope, Leica) and quantification of yellow puncta (autophagosomes) and red puncta (autolysosomes) was performed using Image J software.

In data set [2] the test system is H9C2 cells. Kind of data set: Lysosomal pH (Acridine Orange, Lysosensor) in H9C2. It is filed as cell-based, Rat. Here is the method:
Acridine Orange (Sigma Aldrich), a weak base which accumulates in acidic organelles, was used to label the lysosomes. After treatments, cells were incubated with 5 μM AO for 10 min at 37° C. and washed twice with PBS. Red fluorescence (corresponding to acidic vesicles staining) was measured using a Varioskan Flash Multimode Microplate Reader with excitation/emission at 480/630 nm. Representative pictures were taken with an epifluorescence microscope (DM600 microscope, Leica).
Lysosomal acidification was measured in H9C2 and NRVMs loaded with 2 μM LysoSensor yellow/blue DND-160 (Invitrogen) for 15 min at 37° C. The LysoSensor dye is a ratiometric probe that produces yellow fluorescence in acidic environments, but changes to blue fluorescence in neutral environments. pH calibration was performed following the protocol established by Diwu et al. (Chem Biol. (1999); 6(7):411-418). Briefly, cells were incubated in MES buffer (5 mMNaCl, 115 mMKCl, 1.3 mM MgSO 4, 25 mM MES) supplemented with 10 μM nigericin and 10 μM monensin, for 10 min, with pH adjusted to a range from 3 to 7. The samples were read in a Varioskan Flash Multimode Microplate Reader with excitation at 360 nm. The ratio of emission 440/540 nm was then calculated for each sample.

Data set [3] deals with H9C2 cells. Kind of data set: Cellular ROS (DCFDA) in H9C2. It is filed as cell-based, Rat. The following applies: H9C2, 10 h after doxorubicin 1 μM alone. The method, then:
(§1) Cellular ROS were measured using the fluorescent probe DCFDA assay at a concentration of 5 μM (ThermoFisher Scientific). Fluorescence was quantified using a fluorimeter TECAN infinite proF200 with excitation/emission at 500/530 nm. Mitochondrial ROS were measured by mitoSOX probe (Invitrogen, Molecular Probes). Briefly, the cells were loaded with mitoSOX probe at a final concentration of 5 μM and incubated for 30 min after the indicated treatments. Cells were resuspended in HBSS before reading in Tecan plate reader.

Data set [4] has as its system neonatal rat ventricular myocytes (NRVMs). As to the kind of experiment: Cell death / toxicity (LDH release) in NRVMs. It is filed as cell-based. The following applies: doxorubicin 1 μM alone. Here is the method: (§2) Rat H9C2 cardiomyoblasts (American Type Culture Collection, Rockville, U.S.A.) were grown in DMEM media containing 10% heat-inactivated FBS under 5% CO2 and 95% air at 37° C. H9C2 serve as an animal-free alternative sharing many physiological properties of primary cardiac cells. For neonatal rat ventricular myocytes (NRVMs), rats of 1-2 days old were euthanized and hearts were excised before the atria were removed. Primary culture of NRVMs was subsequently performed as previously described (Manzella et al. 2018; Aging Cell 17(5):e12811). NRVMs were grown in Ham-F12 medium containing 10% heat-inactivated FBS and 10% heat-inactivated HS under 5% CO2 and 95% air at 37° C. Plasmid transfections with GFP-LC3, GFP-RFP-LC3 or RFP-LAMP1 constructs (Addgene) were performed using Lipofectamine 2000 reagent (Life Technologies) in Opti-MEM™ transfection medium (Gibco). […]
For quantitative assessment of cardiomyocyte necrosis, LDH release in culture medium was measured using the LDH cytotoxicity assay kit according to the manufacturer's instructions (Biovision). Apoptosis was measured in NRVMs by caspase-3 activation using a commercial kit (Biotium) according to the manufacturer's instructions.

Data set [5] relates to H9C2 cells. As to the kind of experiment: Mitochondrial membrane potential (JC-1 probe) in H9C2. The following applies: H9C2, 10 h after doxorubicin 1 μM alone. Format: cell-based, Rat. The method, then: The mitochondrial membrane potential was evaluated using JC-1 probe (ThermoFisher Scientific). Before the end of treatments, cells were loaded with JC-1 probe at a concentration of 5 μg/ml for 10 min at 37° C. Then, medium was replaced by HBSS and the fluorescence was recorded at 535 nm (excitation wavelength, emission at 590 nm) to measure the formation of red aggregates and at 485 (excitation wavelength, emission at 530 nm) to measure the presence of green monomers, using a fluorimeter TECAN infinite pro F200. Representative images were taken with an epifluorescence microscope (DM600 microscope, Leica).

In data set [6] the test system is neonatal rat ventricular myocytes (NRVMs). Kind of data set: Mitochondrial ROS (mitoSOX) in NRVMs. As to conditions: doxorubicin 250 nM alone. Format: cell-based. Here is the method: as §1
For data set [7] the test system is unchanged. Kind of data set: Lysosomal pH (Acridine Orange, Lysosensor) in NRVMs. Format: cell-based. As to conditions: doxorubicin 250 nM alone. Here is the method: as §2, with “C.” for “C. Plasmid transfections with GFP-LC3, GFP-RFP-LC3 or RFP-LAMP1 constructs (Addgene) were performed using Lipofectamine 2000 reagent (Life Technologies) in Opti-MEM™ transfection medium (Gibco).”
Acridine Orange (Sigma Aldrich), a weak base which accumulates in acidic organelles, was used to label the lysosomes. […] Red fluorescence (corresponding to acidic vesicles staining) was measured using a Varioskan Flash Multimode Microplate Reader with excitation/emission at 480/630 nm. […]
Lysosomal acidification was measured in H9C2 and NRVMs loaded with 2 μM LysoSensor yellow/blue DND-160 (Invitrogen) for 15 min at 37° C. The LysoSensor dye is a ratiometric probe that produces yellow fluorescence in acidic environments, but changes to blue fluorescence in neutral environments. pH calibration was performed following the protocol established by Diwu et al. (Chem Biol. (1999); 6(7):411-418). […]

The mark [8] stands for this setting: H9C2, Bafilomycin A1 100 nM alone.

Molecules are shown by their SMILES.

On to `CO/C1=C\C(C)=C\[C@@H](C)[C@@H](O)[C@@H](C)C/C(C)=C/C=C/[C@H](OC)[C@@H]([C@@H](C)[C@@H](O)[C@H](C)[C@@]2(O)C[C@@H](O)[C@H](C)[C@@H](C(C)C)O2)OC1=O` [Baf A1, Bafilomycin A1], for which the “LC3-II and p62 protein levels” value with LC3-II and p62 is “increased LC3-II and p62 protein levels”. For the same compound, the “autophagic flux, tandem RFP-GFP-LC3 reporter” value with H9C2 cells [1] (H9C2, Baf A1 alone) is “accumulation of red+green autophagosomes (AP) and to the reduction of red-only autolysosomes”. Also, in the data set with H9C2 cells [1] (H9C2, Baf A1 treatment alone), the “autophagosomes in GFP-LC3-transduced cells” value was “accumulation of autophagosomes (AP)”. For the same compound, in the data set on H9C2 cells [2] (setting [8]), the “Acridine Orange red puncta (lysosomal acidification)” value is “loss of Acridine Orange (AO) red puncta” and the “lysosomal pH (Lysosensor)” value was “rise in lysosomal pH”.
As to `COc1cccc2c1C(=O)c1c(O)c3c(c(O)c1C2=O)C[C@@](O)(C(=O)CO)C[C@@H]3O[C@H]1C[C@H](N)[C@H](O)[C@H](C)O1` [doxorubicin], in the data set with H9C2 cells [3], the “oxidative stress (ROS, DCFDA)” value is reported as “accumulation of oxidative stress”. Also, in data set [4], the “cell death at the dose used in prior experiments” value was “rapid cell death in only 24 hours”. For the same compound, the “mitochondrial membrane potential (JC-1)” value in the data set on H9C2 cells [5] is listed as “drop in mitochondrial membrane potential”. Also, in the data set on H9C2 cells [1] (H9C2, doxorubicin 1 μM alone), the “autolysosomes (AL), GFP-RFP-LC3 reporter” value was “accumulation of autolysosomes (AL)” and the “number of autophagosomes (AP), GFP-RFP-LC3 reporter” value is “remained unchanged”. In addition, in the data set on H9C2 cells [2] (H9C2, doxorubicin 1 μM alone), the AO red fluorescence result is “significantly decreased AO red fluorescence” and the “lysosomal pH (lysosensor blue/yellow ratio)” value is reported as “increased lysosomal pH”. Further, the “mitochondrial ROS (mitoSOX)” value in data set [6] is “mitochondrial ROS increase”. Besides, the “duration of A.O. red fluorescence alteration” value in data set [7] is “maintained until 40 h”. Further, the A.O. red fluorescence entry in data set [7] (24 h) is given as “decrease in A.O. red fluorescence”.

The values above are taken from patent US20230346705A1, “NANOPARTICLES FOR TREATING OR PREVENTING A CARDIOMYOPATHY AND ANTHRACYCLINE-CYTOTOXICITY, AND THEIR ADMINISTRATION AS AN AEROSOL” (INSTITUT NATIONAL DE LA SANTE ET DE LA RECHERCHE MEDICALE …, priority 2020, published 2023).
